Among the data in PubChem BioAssay (NCI) are GI50 and TGI values, retold here.

Where “and” joins values, the source holds several entries; their conditions need not be identical. Equal entries are not always repeated.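 96-well plates; 48 h exposure; 5 concentrations. Endpoints by linear interpolation between flanking doses. Not reached: highest tested concentration assigned. GI50 = concentration required for 50% inhibition of growth. TGI marks complete inhibition of growth.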 Numbered stars: 1 amine (or outer) side, 2 acyl side, 3 side chain; on linkers, the order of the positions; unused ones are H or OH. Bridge positions count the residues as written; N and C are the ends. Square brackets hold non-standard residues; d marks the D form. Peptide text beside a SMILES is read from it. I, II: the chains in the order shown. Actinocin(1to9) = Cc1c2oc3c(C)ccc(C(=O)[*:2])c3nc-2c(C(=O)[*:1])c(N)c1=O; NMeY = CN[CH](Cc1ccc(O)cc1)C(=O)O; Sar = CNCC(=O)O

Assay in all cases: growth of human tumour cells (NCI), 48 h
The test system of test [1] is UACC-257 melanoma.
Test [2] relates to SNB-75 CNS.
Test [3] has as its system CAKI-1 renal.
In test [4] the test system is HT29 colon.
Test [5] has as its system SF-539 CNS.
Test [6] deals with UACC-62 melanoma.
For test [7], the system named is A549 NSCLC.
In test [8] the test system is RXF 393 renal.
Test [9] has as its system LOX IMVI melanoma.

In the case of `CCC[CH2][Sn]1([CH2]CCC)[S]CC[N]1S(=O)(=O)c1ccc(C)cc1`, the GI50 in [1] was 1.23 µM; in test [2], 1.13 µM; in test [3], 0.675 µM; in [4], 2.04 µM; in [5], 1.36 µM; in [6], 1.47 µM. Further, the GI50 in test [7] was 3.15 µM. Besides, the TGI in [1] is 2.5 µM; in test [2] it was 2.38 µM; in [3], 1.96 µM; in [4], 3.73 µM; in [5], 2.68 µM; in test [6], 3.13 µM. The TGI in [7] was determined as 9.32 µM.
Consider `COc1ccc2c(c1)CN1CCc3c(cc(OC)c(OC)c3OC)C1C2` (centres undefined), for which the TGI in [1], in test [2], in test [3], in test [4], in test [5] and in test [6] was over 100 µM in each case. Further, the TGI in test [8] and in test [7] was over 100 µM each time.
Take `C[C@H]1C=C2C(=O)O[C@H]3CC[C@@H](C1)[C@@]23O`: the TGI in [1] was found to be 22.9 µM; in test [2], 19.5 µM; in test [3] it was 14.8 µM; in test [4] it was 16.9 µM; in [5] it was 4.25 µM; in test [9], 10.3 µM. Further, the TGI in test [6] was determined as 13.2 µM; in test [8], 9.02 µM; in test [7], 34.3 µM.
In the case of `CC(=O)Oc1ccc2c(c1)C(=O)c1nc(C)c(C)nc1C2=O`, the TGI in test [1] was over 66.4 µM; in test [2] it was over 100 µM; in [3] it was over 100 µM; in [4], over 91.7 µM; in [5], 55.4 µM; in test [9] it was over 100 µM. The TGI in test [6] is 38.8 µM; in test [8] it was 96.4 µM; in [7] it was over 100 µM.
On to `COC(=O)C1CCc2nnc(-c3ccccc3)n21` (centres undefined), for which the TGI in test [1], in test [2], in test [3], in test [4], in test [5] and in test [9] was over 100 µM in each case. Also, the TGI in test [6], in [8] and in [7] was over 100 µM throughout.
`CC[PH+](CC)CC.[Cl][Au]`: the GI50 in test [1] was 1.09 µM; in [2], 2.3 µM; in test [3], 1.18 µM; in [4], 3.84 µM; in test [5], 2.35 µM; in [9], 1.4 µM. Further, the GI50 in test [6] is 1.16 µM; in test [8], 0.447 µM; in [7] it was 15.5 µM. Also, the TGI worked out at 2.36 µM in test [1]; 6.99 µM in [2]; 2.64 µM in test [3]; 8.96 µM in test [4]; 7.36 µM in test [5]; 2.91 µM in test [9]. The TGI amounted to 2.63 µM in [6], 1.66 µM in test [8] and 44.4 µM in test [7].
With `C=C1C(OC(C)=O)CC(OC(C)=O)C2(C)C(OC(C)=O)C(OC(C)=O)C3=C(C)C(OC(=O)/C=C/c4ccccc4)CC(C(OC(C)=O)C12)C3(C)C` (centres undefined), the TGI in [1] is over 100 µM; in [2], 43.4 µM; in test [3] it was over 100 µM; in [4], over 100 µM; in [5] it was over 100 µM; in test [9] it was over 100 µM. For the same compound, the TGI in [6], in [8] and in test [7] was over 100 µM in each case.
On to `CNC(=O)CN(CC(=O)O)C(=O)NC`, for which the TGI in test [1], in test [2], in test [3], in test [4], in [5] and in test [9] was over 100 µM each time. Also, the TGI in test [6], in [8] and in test [7] was over 100 µM in each case.
As for `C=C1C[C@@H]2C[C@@H](C)CC(O)[C@]2(CCCN)C1O` (some centres undefined), the TGI in [1], in test [2], in [3], in test [4], in test [5] and in [9] was over 100 µM in each case. Also, the TGI in test [6], in [8] and in test [7] was over 100 µM throughout.
On to `CC1=CCCC2C(C=O)(C1)CC(C)C2(CO)CC/C(=C/CO)CO` (centres undefined), for which the TGI in test [1], in [2], in [3], in [4], in test [9] and in [6] was over 100 µM in each case. Moreover, the TGI in test [8] and in test [7] was over 100 µM throughout.
Take `COc1cc2cnc3c4cc(OCc5ccccc5)ccc4ccc3c2cc1OC`: the TGI in test [1] is over 100 µM; in test [2], 18.7 µM; in [3], over 100 µM; in [4], over 100 µM; in test [5], over 100 µM; in [9], over 100 µM. Moreover, the figures for the TGI in [6], in test [8] and in test [7] were over 100 µM, 47.6 µM and over 100 µM, respectively.
For `c1cncc(CSc2nc3ccccc3nc2-c2cccs2)c1`, the TGI in [1], in test [2], in [4], in test [5], in test [9] and in [7] was over 100 µM throughout.
As to `C1=CCCC=CCC1.C[PH+](C)C.C[PH+](C)C.C[PH+](C)C.[Cl-].[Ir]`, the GI50 in test [1] is 23.2 µM; in test [2] it was 34.3 µM; in test [4], 47.6 µM; in test [5] it was over 100 µM; in test [9] it was 31.4 µM; in test [6], 32.6 µM. In addition, the figures for the GI50 in [8] and in test [7] were over 100 µM and 80.1 µM, respectively. Further, the TGI in test [1] was 59.1 µM; in test [2], over 100 µM; in [4], over 100 µM; in [5], over 100 µM; in [9], over 100 µM; in test [6], over 100 µM. In addition, the TGI in [8] and in [7] was over 100 µM in each case.
In the case of `O=C1Nc2cc(F)ccc2C1=O`, the TGI in test [1], in test [2], in [3], in [4], in test [5] and in test [9] was over 100 µM in each case. In addition, the TGI in [6], in test [8] and in [7] was over 100 µM in each case.
Regarding `CO[C@@]1(c2ccccc2)O[C@H]2OCCC2[C@H]1c1ccc(Cl)cc1` (some centres undefined), the TGI is 44.6 µM in test [1]; over 100 µM in test [2]; over 100 µM in test [3]; 50.6 µM in [4]; over 100 µM in test [5]; 77.4 µM in test [9]. Further, the TGI in test [6] is over 100 µM; in test [8] it was 57.4 µM; in test [7], over 100 µM.
Turning to `O/N=C/c1ccc(O)c(O)c1`, the TGI in [1], in [2], in test [3], in [4], in test [5] and in test [9] was over 100 µM each time. Also, the TGI in test [6], in test [8] and in test [7] was over 100 µM in each case.
Turning to `COc1cc(/C=N/N=C(\N)NO)c([N+](=O)[O-])cc1OC`, the TGI in [1] was over 100 µM; in test [2], 78.9 µM; in test [3], 76.2 µM; in [4], over 100 µM; in test [5] it was over 100 µM; in test [9] it was 83.5 µM. In addition, the TGI in [6] was 59 µM; in test [8], 65.2 µM; in test [7], over 100 µM.
In the case of `COc1ccc2c(c1)CCc1c-2n[nH]c1-c1[nH]nc2c1CCc1cc(OC)ccc1-2`, the TGI in test [1] is over 100 µM; in test [2], 61.3 µM; in test [3] it was 92.7 µM; in [4] it was over 100 µM; in [5], 63.2 µM; in test [9], over 100 µM. For the same compound, the TGI in test [6] and in test [7] was over 100 µM each time.
Regarding `CCC(CO)Nc1nc2c(c(=O)n(C)c(=O)n2C)n1CCO` (centres undefined), the TGI in test [1], in test [2], in [4], in [5], in test [6] and in [8] was over 100 µM each time. The compound further had a TGI in [7] of over 100 µM.
Regarding `CCCCN(CCCC)CC(C(C)=O)C(c1ccccc1)c1c(O)c2ccccc2oc1=O` (centres undefined), the TGI was over 100 µM in test [1]; 76.3 µM in test [2]; over 100 µM in test [3]; over 100 µM in test [4]; over 100 µM in test [5]; over 100 µM in test [9]. Moreover, the TGI in test [6], in test [8] and in test [7] was over 100 µM throughout.
As for `Nc1c2ccccc2nc2c(C(=O)Nc3ccc(S(N)(=O)=O)cc3)cccc12`, the TGI in test [1], in test [2], in test [3], in test [4], in [5] and in test [9] was over 100 µM in each case. For the same compound, the TGI in [6], in [8] and in test [7] was over 100 µM each time.
Turning to `COC(=O)CC[C@]12C[C@]13CC[C@]1(C)C4C(C)C[C@]5(CC(C)C(=O)O5)OC4CC1(C)C3CCC2C(C)(C)O` (some centres undefined), the TGI in test [1], in test [2], in test [4], in test [5], in test [9] and in test [8] was over 100 µM each time. Also, the TGI in test [7] is over 100 µM.
With `COc1ccc(CC2C(=O)OC(C)C(NC(=O)c3c4nc5c(C(=O)NC6C(=O)NC(C(C)C)C(=O)N7CCCC7C(=O)N(C)CC(=O)N(C)C(Cc7ccc(OC)cc7)C(=O)OC6C)ccc(C)c5oc-4c(C)c(=O)c3N)C(=O)NC(C(C)C)C(=O)N3CCCC3C(=O)N(C)CC(=O)N2C)cc1` (centres undefined) (I: TVP[Sar][NMeY](Me) / II: TVP[Sar][NMeY](Me); ester I:1-I:C, II:1-II:C; linker I:N-II:N via Actinocin(1to9); configuration not given here), the TGI in test [2] is 0.158 µM; in test [3] it was 0.734 µM; in test [7], 0.29 µM and > 1 µM. For the same compound, the GI50 in test [3] was < 0.01 µM and 0.0363 µM; in test [4], < 0.01 µM and 0.00275 µM; in test [9], < 0.01 µM and 0.00423 µM; in test [8], < 0.01 µM and 0.0306 µM.
Take `CC(=O)[O-].N.N.N.N.[Co+3].[O-][Cl+3]([O-])([O-])[O-].[OH3+]`: the GI50 in [1] was over 100 µM; in test [2], 55.1 µM; in [4], over 100 µM; in test [9] it was over 100 µM; in test [6], over 100 µM; in test [7] it was over 100 µM. Further, the TGI in [1], in test [2], in test [4], in test [9], in test [6] and in test [7] was over 100 µM each time.
Take `O=C1NC2C(O)CCCCC2C12CCCCC2` (centres undefined): the TGI in [1], in test [2], in [3], in [4], in [5] and in test [9] was over 100 µM in each case. The TGI in test [6], in test [8] and in [7] was over 100 µM in each case.
With `NC(=O)c1ccc(Cl)c([N+](=O)[O-])c1`, the TGI in test [1], in test [2], in [3], in test [4], in test [5] and in [9] was over 100 µM in each case. The TGI in test [6], in test [8] and in test [7] was over 100 µM each time.
Regarding `COC(=O)N/N=C(\C)CC(=O)Nc1ccc(Cl)cc1`, the TGI in test [1], in [2], in [4], in [5], in test [9] and in [6] was over 100 µM throughout. Also, the TGI in [8] and in test [7] was over 100 µM in each case.
